In patent EP1641803B1, “THIENOPYRIMIDINE DERIVATIVES AS POTASSIUM CHANNEL INHIBITORS” (Xention Limited, priority 2003, dated 2004):

Tests used:
human Kv1.5 = molecular target: T1, human Kv1.5 (Homo sapiens, UniProt P22460); test: Kv1.5 Rb+ Efflux Assay; format: cell-based; details: inhibition of 86Rb+ efflux through Kv1.5; cells stably transfected with human Kv1.5; 10 point concentration response curves n=2; normalised to 2.5mM 4 amino-pyridine block
T1 construct: expressed in transfected cells
T1 sequence (P22460 whole entry): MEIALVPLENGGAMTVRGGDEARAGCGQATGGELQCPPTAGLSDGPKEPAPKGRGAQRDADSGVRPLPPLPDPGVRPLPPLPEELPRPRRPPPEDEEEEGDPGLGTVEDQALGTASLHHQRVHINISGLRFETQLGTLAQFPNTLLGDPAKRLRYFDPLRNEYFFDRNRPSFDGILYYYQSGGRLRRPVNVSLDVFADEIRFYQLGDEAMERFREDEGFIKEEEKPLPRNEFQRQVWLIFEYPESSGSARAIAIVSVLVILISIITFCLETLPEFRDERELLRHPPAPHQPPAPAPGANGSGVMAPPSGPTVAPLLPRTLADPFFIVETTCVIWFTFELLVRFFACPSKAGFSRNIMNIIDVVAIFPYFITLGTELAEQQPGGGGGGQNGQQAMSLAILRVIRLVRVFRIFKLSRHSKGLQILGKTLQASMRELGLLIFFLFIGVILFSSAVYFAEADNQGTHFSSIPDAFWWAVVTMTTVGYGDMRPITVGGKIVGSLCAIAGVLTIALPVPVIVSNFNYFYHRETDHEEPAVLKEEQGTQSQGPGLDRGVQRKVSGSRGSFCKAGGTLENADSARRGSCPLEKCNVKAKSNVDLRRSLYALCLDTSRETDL
Outline: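 Cells stably expressing human Kv1.5 loaded with ⁸⁶Rb⁺ ≥3 h, preincubated 10 min at room temperature with compound, then depolarised with high-KCl (145mM) buffer for 10 min; effluxed ⁸⁶Rb⁺ counted by Cerenkov emission (alternatively ⁸⁵Rb⁺ by atomic absorption). Inhibition normalised to 2.5mM 4-aminopyridine block; IC50 from 10-point curves, n=2, variable-slope sigmoidal fit.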

hKv1.5 = hKv1.5 (Homo sapiens, UniProt P22460); test: Kv1.5 Autopatch Electrophysiology (whole cell patch-clamp); format: cell-based; details: compound at 1µM, room temperature (22-24°C), held at -80mV, step to 0mV for 1000ms, total charge measured
hKv1.5, sequence (P22460 whole entry): as above
Outline: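 Whole-cell automated patch-clamp at 22-24°C, compounds tested at 1µM in external bather (KCl/K-gluconate, pH 7.4; KCl/EGTA pipette). Cells held at -80mV and stepped to 0mV for 1000ms every 5s; only cells with IK > 500 pA and Rseries ≤18 MΩ used. Read-out: total charge over the whole step.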

| SMILES | IC50 (human Kv1.5) | inhibition at 1 µM (hKv1.5) |
| --- | --- | --- |
| Clc1cccc(-c2csc3ncnc(NCc4ccccn4)c23)c1 [Example 321, [5-(3-Chlorophenyl)-thieno[2,3-d]pyrimidin-4-yl]-pyridin-2-ylmethyl-amine] | 1520 nM | 95% |
| COc1cccc(-c2csc3ncnc(NCc4ccccn4)c23)c1 [Example 322, [5-(3-Methoxyphenyl)-thieno[2,3-d]pyrimidin-4-yl]-pyridin-2-ylmethyl-amine] | 260 nM | 94% |
| c1ccc(CNc2ncnc3scc(-c4ccc5cc[nH]c5c4)c23)nc1 [Example 323, [5-(1H-Indol-6-yl)-thieno[2,3-d]pyrimidin-4-yl]-pyridin-2-ylmethyl-amine] | 40 nM | 94% |
| Clc1ccc(-c2csc3ncnc(NCc4ccccn4)c23)cc1 [Example 325, [5-(4-Chlorophenyl)-thieno[2,3-d]pyrimidin-4-yl]-pyridin-2-ylmethyl-amine] | 2540 nM | 90.8% |
| FC1(F)Oc2ccc(-c3csc4ncnc(NCc5ccccn5)c34)cc2O1 [Example 326, [5-(2,2-Difluoro-benzo[1,3]dioxol-5-yl)-thieno[2,3-d]pyrimidin-4-yl]-pyridin-2-ylmethyl-amine] | 10400 nM | 89% |
| Fc1cccc(-c2csc3ncnc(NCc4ccccn4)c23)c1 [Example 331, [5-(3-Fluorophenyl)-thieno[2,3-d]pyrimidin-4-yl]-pyridin-2-ylmethyl-amine] | 30 nM | 76% |
| c1ccc(CNc2ncnc3scc(-c4ccc(N5CCOCC5)cc4)c23)nc1 [Example 332, [5-(4-Morpholin-4-yl-phenyl)-thieno[2,3-d]pyrimidin-4-yl]-pyridin-2-ylmethyl-amine] | 47400 nM | 73% |
| Fc1ccc(-c2csc3ncnc(NCc4ccccn4)c23)cc1F [Example 333, [5-(3,4-Difluoro-phenyl)-thieno[2,3-d]pyrimidin-4-yl]-pyridin-2-ylmethyl-amine] | 10400 nM | 63% |
